ChEMBL document CHEMBL4020729, “Synthesis and evaluation of anti-plasmodial and cytotoxic activities of epoxyazadiradione derivatives” (Eur J Med Chem, 2017)

What was measured:
Type in all cases: functional, cell-based
Plasmodium falciparum [1] = assay: Anti-plasmodial activity against chloroquine-sensitive Plasmodium falciparum 3D7 infected in human erythrocytes after 50 hrs by SYBR green dye based fluorescence assay; settings: 3D7, 50 h
Plasmodium falciparum [2] = assay: Anti-plasmodial activity against chloroquine-resistant Plasmodium falciparum Dd2 infected in human erythrocytes after 50 hrs by SYBR green dye based fluorescence assay; settings: Dd2, 50 h
SiHa = assay: Antiproliferative activity against human SiHa cells after 48 hrs by SRB assay
PANC-1 = assay: Antiproliferative activity against human PANC1 cells after 48 hrs by SRB assay; settings: PANC-1, 48 h
MDA-MB-231 = assay: Antiproliferative activity against human MDA-MB-231 cells after 48 hrs by SRB assay; settings: MDA-MB-231, 48 h
IMR-32 = assay: Antiproliferative activity against human IMR32 cells after 48 hrs by SRB assay; settings: IMR-32, 48 h

Compound	IC50 (Plasmodium falciparum [1]) [µM]	IC50 (Plasmodium falciparum [2]) [µM]	IC50 (SiHa) [µM]	IC50 (PANC-1) [µM]	IC50 (MDA-MB-231) [µM]	IC50 (IMR-32) [µM]
CC(=O)O[C@@H]1C[C@H]2C(C)(C)C(=O)C=C[C@]2(C)[C@H]2CC[C@@]3(C)[C@H](c4ccoc4)/C(=N\OCc4cn(CC(=O)Nc5ccc(F)c(Cl)c5)nn4)[C@H]4O[C@]43[C@@]21C	32	26	> 100	> 100	> 100	> 100
CC1(C)C(=O)C=C[C@]2(C)[C@H]3CC[C@@]4(C)[C@H](c5ccoc5)C(=O)[C@H]5O[C@]54[C@]3(C)C(=O)C[C@@H]12	12.9	20	> 100	> 100	18	> 100
CC(=O)O[C@@H]1C[C@H]2C(C)(C)C(=O)C=C[C@]2(C)[C@H]2CC[C@@]3(C)[C@H](c4ccoc4)/C(=N\O)[C@H]4O[C@]43[C@@]21C	7.7	2.2	> 100	> 100	> 100	> 100
CC(=O)O[C@@H]1C[C@H]2C(C)(C)C(=O)C=C[C@]2(C)[C@H]2CC[C@@]3(C)[C@H](c4ccoc4)/C(=N\OCc4cn(CC(=O)Nc5ccc(I)c(Cl)c5)nn4)[C@H]4O[C@]43[C@@]21C	53.2	87	> 100	> 100	> 100	> 100
CC(=O)O[C@@H]1C[C@H]2C(C)(C)C(=O)C=C[C@]2(C)[C@H]2CC[C@@]3(C)[C@H](c4ccoc4)/C(=N\OCc4cn(-c5ccc(Cl)c([N+](=O)[O-])c5)nn4)[C@H]4O[C@]43[C@@]21C	2.8	1.3	> 100	> 100	> 100	> 100
CC(=O)O[C@@H]1C[C@H]2C(C)(C)C(=O)C=C[C@]2(C)[C@H]2CC[C@@]3(C)[C@H](c4ccoc4)C(=O)[C@H]4O[C@]43[C@@]21C [EPOXYAZADIRADIONE]	2.9	2.9	> 100	> 100	> 100	> 100
CCN1CCN(CC(=O)O[C@@H]2C[C@H]3C(C)(C)C(=O)C=C[C@]3(C)[C@H]3CC[C@@]4(C)[C@H](c5ccoc5)C(=O)[C@H]5O[C@]54[C@@]32C)CC1	8.6	6	> 100	> 100	> 100	> 100
CC1(C)C(=O)C=C[C@]2(C)[C@H]3CC[C@@]4(C)[C@H](c5ccoc5)C(=O)[C@H]5O[C@]54[C@]3(C)[C@H](OC(=O)c3ccc(F)c(Br)c3)C[C@@H]12	6	5.5	> 100	> 100	> 100	> 100
CC(=O)O[C@@H]1C[C@H]2C(C)(C)C(=O)C=C[C@]2(C)[C@H]2CC[C@@]3(C)[C@H](c4ccoc4)/C(=N\OCc4cn(-c5cc([N+](=O)[O-])ccc5Cl)nn4)[C@H]4O[C@]43[C@@]21C	5.1	3.8	> 100	> 100	> 100	> 100
CC(=O)O[C@@H]1C[C@H]2C(C)(C)/C(=N/O)C=C[C@]2(C)[C@H]2CC[C@@]3(C)[C@H](c4ccoc4)/C(=N\O)[C@H]4O[C@]43[C@@]21C	31.4	–	> 100	> 100	29.1	> 100
CC(=O)O[C@@H]1C[C@H]2C(C)(C)C(=O)C=C[C@]2(C)[C@H]2CC[C@@]3(C)[C@H](c4ccoc4)/C(=N\OCc4cn(-c5ccccc5C#N)nn4)[C@H]4O[C@]43[C@@]21C	1.7	–	> 100	> 100	> 100	> 100
COc1cccc(C(=O)O/N=C2/[C@H]3O[C@]34[C@@]3(C)[C@H](CC[C@@]4(C)[C@@H]2c2ccoc2)[C@@]2(C)C=CC(=O)C(C)(C)[C@@H]2C[C@H]3OC(C)=O)c1	8	–	> 100	> 100	> 100	> 100
CC(=O)O[C@@H]1C[C@H]2C(C)(C)C(=O)CC[C@]2(C)[C@H]2CC[C@@]3(C)[C@H](c4ccoc4)C(=O)[C@H]4O[C@]43[C@@]21C	7.5	–	> 100	> 100	20.2	> 100
CC(=O)O[C@@H]1C[C@H]2C(C)(C)C(O)CC[C@]2(C)[C@H]2CC[C@@]3(C)[C@H](c4ccoc4)C(O)[C@H]4O[C@]43[C@@]21C (stereo not given in full)	21.4	–	> 100	> 100	15.9	> 100
C#CCO/N=C1/[C@H]2O[C@]23[C@@]2(C)[C@H](CC[C@@]3(C)[C@@H]1c1ccoc1)[C@@]1(C)C=CC(=O)C(C)(C)[C@@H]1C[C@H]2OC(C)=O	7	8.4	> 100	> 100	> 100	> 100
CC(=O)O[C@@H]1C[C@H]2C(C)(C)C(=O)C=C[C@]2(C)[C@H]2CC[C@@]3(C)[C@H](c4ccoc4)/C(=N\OCc4cn(-c5ccc(C)cc5)nn4)[C@H]4O[C@]43[C@@]21C	4.2	–	> 100	> 100	> 100	> 100
CCCC(=O)O/N=C1/[C@H]2O[C@]23[C@@]2(C)[C@H](CC[C@@]3(C)[C@@H]1c1ccoc1)[C@@]1(C)C=CC(=O)C(C)(C)[C@@H]1C[C@H]2OC(C)=O	9.3	–	> 100	> 100	> 100	> 100
CC(=O)O[C@@H]1C[C@H]2C(C)(C)C(=O)C=C[C@]2(C)[C@H]2CC[C@@]3(C)[C@H](c4ccoc4)/C(=N\OCc4cn(CC(=O)Nc5ccc(C)cc5)nn4)[C@H]4O[C@]43[C@@]21C	31	24	> 100	> 100	> 100	> 100
CC(=O)O[C@@H]1C[C@H]2C(C)(C)C(=O)C=C[C@]2(C)[C@H]2CC[C@@]3(C)[C@H](c4ccoc4)/C(=N\OC(=O)c4cc(Br)ccc4[N+](=O)[O-])[C@H]4O[C@]43[C@@]21C	4.1	–	> 100	> 100	> 100	> 100
CC(=O)O[C@@H]1C[C@H]2C(C)(C)C(=O)C=C[C@]2(C)[C@H]2CC[C@@]3(C)[C@H](c4ccoc4)/C(=N\OCc4cn(CC(=O)Nc5ccccc5)nn4)[C@H]4O[C@]43[C@@]21C	13.8	8.3	> 100	25.4	> 100	> 100
CC(=O)O[C@@H]1C[C@H]2C(C)(C)C(=O)C=C[C@]2(C)[C@H]2CC[C@@]3(C)[C@H](c4ccoc4)/C(=N\OCc4cn(-c5ccc(C(C)=O)cc5)nn4)[C@H]4O[C@]43[C@@]21C	3.1	2.3	> 100	> 100	> 100	> 100
CC(=O)O[C@@H]1C[C@H]2C(C)(C)C(=O)C=C[C@]2(C)[C@H]2CC[C@@]3(C)[C@H](c4ccoc4)/C(=N\OCc4cn(-c5cc(Cl)c(Cl)cc5Cl)nn4)[C@H]4O[C@]43[C@@]21C	2.3	–	> 100	> 100	> 100	> 100
CC1(C)C(=O)C=C[C@]2(C)[C@H]3CC[C@@]4(C)[C@H](c5ccoc5)C(=O)[C@H]5O[C@]54[C@]3(C)[C@H](O)C[C@@H]12	11.4	9.4	–	–	–	–
CC(=O)O[C@@H]1C[C@H]2C(C)(C)C(=O)C=C[C@]2(C)[C@H]2CC[C@@]3(C)[C@H](c4ccoc4)/C(=N\OC(=O)c4ccc(Br)cc4)[C@H]4O[C@]43[C@@]21C	9.4	–	> 100	> 100	> 100	> 100
CC(=O)O/N=C1/[C@H]2O[C@]23[C@@]2(C)[C@H](CC[C@@]3(C)[C@@H]1c1ccoc1)[C@@]1(C)C=CC(=O)C(C)(C)[C@@H]1C[C@H]2OC(C)=O	9.3	–	> 100	> 100	> 100	> 100
CC(=O)O[C@@H]1C[C@H]2C(C)(C)C(=O)CC[C@]2(C)[C@H]2CC[C@@]3(C)[C@H](C4CCOC4)C(=O)[C@H]4O[C@]43[C@@]21C (stereo not given in full)	78.7	–	> 100	> 100	> 100	> 100
CC(=O)O[C@@H]1C[C@H]2C(C)(C)C(=O)C3OC3[C@]2(C)[C@H]2CC[C@@]3(C)[C@H](c4ccoc4)C(=O)[C@H]4O[C@]43[C@@]21C (stereo not given in full)	15.5	–	> 100	> 100	23.2	> 100
CC1(C)C(=O)C2OC2[C@]2(C)[C@H]3CC[C@@]4(C)[C@H](c5ccoc5)C(=O)[C@H]5O[C@]54[C@]3(C)C(=O)C[C@@H]12 (stereo not given in full)	131	–	> 100	> 100	> 100	> 100
CC(=O)O[C@@H]1C[C@H]2C(C)(C)C(=O)C=C[C@]2(C)[C@H]2CC[C@@]3(C)[C@H](c4ccoc4)C(O)[C@H]4O[C@]43[C@@]21C (stereo not given in full)	13.1	–	> 100	> 100	47.8	> 100
